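96-well plates; 48 h exposure; 5 concentrations. Endpoints by linear interpolation between flanking doses. Not reached: highest tested concentration assigned. GI50: concentration for 50% inhibition of growth.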 The source made the active and inactive calls. Rule as the data show it: active = GI50 up to about 1.1 µM and inactive = higher.
Experiments:
Experiment in all cases: DTP human tumour cell line panel, 48 h
SN12C = system: SN12C
SF-295 = system: SF-295
UACC-257 = system: UACC-257
RPMI-8226 = system: RPMI-8226
SF-539 = system: SF-539
SW-620 = system: SW-620
DMS-273 = system: DMS-273
TK-10 = system: TK-10
786-0 = system: 786-0
OVCAR-4 = system: OVCAR-4
COLO 205 = system: COLO 205
ACHN = system: ACHN
KM-20L2 = system: KM-20L2
OVCAR-8 = system: OVCAR-8
A549 = system: A549
UACC-62 = system: UACC-62
LXFL 529 = system: LXFL 529
LOX IMVI = system: LOX IMVI
RXF 393 = system: RXF 393
HOP-62 = system: HOP-62
XF498 = system: XF498
SK-MEL-2 = system: SK-MEL-2
HT-29 = system: HT-29
SK-OV-3 = system: SK-OV-3
NCI-H522 = system: NCI-H522
UO-31 = system: UO-31
SK-MEL-5 = system: SK-MEL-5
OVCAR-5 = system: OVCAR-5
NCI-H460 = system: NCI-H460
HCT-15 = system: HCT-15
K562 = system: K562
DLD-1 = system: DLD-1
SK-MEL-28 = system: SK-MEL-28
SNB-19 = system: SNB-19
CCRF-CEM = system: CCRF-CEM
M19-MEL = system: M19-MEL
SNB-75 = system: SNB-75
CAKI-1 = system: CAKI-1
NCI-H226 = system: NCI-H226
Malme-3M = system: Malme-3M
EKVX = system: EKVX
SNB-78 = system: SNB-78
RXF 631 = system: RXF 631
M14 = system: M14
HOP-92 = system: HOP-92
OVCAR-3 = system: OVCAR-3
A498 = system: A498
SF-268 = system: SF-268
HCC 2998 = system: HCC 2998
MOLT-4 = system: MOLT-4
NCI-H23 = system: NCI-H23
HCT-116 = system: HCT-116
KM12 = system: KM12
DMS-114 = system: DMS-114
IGROV-1 = system: IGROV-1
U-251 = system: U-251
HL-60 = system: HL-60

## CC(=O)NC(CCCNCc1ccccc1)C(=O)NCc1ccccc1 (stereo not given)
SN12C
  GI50: > 100 µM (inactive)
SF-295
  GI50: > 100 µM (inactive)
UACC-257
  GI50: > 100 µM (inactive)
RPMI-8226
  GI50: > 100 µM (inactive)
SF-539
  GI50: > 100 µM (inactive)
SW-620
  GI50: > 100 µM (inactive)
DMS-273
  GI50: > 100 µM (inactive)
TK-10
  GI50: > 100 µM (inactive)
786-0
  GI50: > 100 µM (inactive)
OVCAR-4
  GI50: > 100 µM (inactive)
COLO 205
  GI50: > 100 µM (inactive)
ACHN
  GI50: > 100 µM (inactive)
KM-20L2
  GI50: > 100 µM (inactive)
OVCAR-8
  GI50: > 100 µM (inactive)
A549
  GI50: > 100 µM (inactive)
UACC-62
  GI50: > 100 µM (inactive)
LXFL 529
  GI50: > 100 µM (inactive)
LOX IMVI
  GI50: > 100 µM (inactive)
RXF 393
  GI50: > 100 µM (inactive)
HOP-62
  GI50: > 100 µM (inactive)
XF498
  GI50: > 100 µM (inactive)
SK-MEL-2
  GI50: > 100 µM (inactive)
HT-29
  GI50: > 100 µM (inactive)
SK-OV-3
  GI50: > 100 µM (inactive)
NCI-H522
  GI50: > 100 µM (inactive)
UO-31
  GI50: > 100 µM (inactive)
SK-MEL-5
  GI50: > 100 µM (inactive)
OVCAR-5
  GI50: > 100 µM (inactive)
NCI-H460
  GI50: > 100 µM (inactive)
HCT-15
  GI50: > 100 µM
K562
  GI50: > 100 µM (inactive)
DLD-1
  GI50: > 100 µM (inactive)
SK-MEL-28
  GI50: > 100 µM (inactive)
SNB-19
  GI50: > 100 µM (inactive)
CCRF-CEM
  GI50: > 100 µM (inactive)
M19-MEL
  GI50: > 100 µM (inactive)
SNB-75
  GI50: 87.3 µM (inactive)
CAKI-1
  GI50: > 100 µM (inactive)
NCI-H226
  GI50: > 100 µM (inactive)
Malme-3M
  GI50: > 100 µM (inactive)
EKVX
  GI50: > 100 µM (inactive)
SNB-78
  GI50: 82 µM (inactive)
RXF 631
  GI50: > 100 µM (inactive)
M14
  GI50: > 100 µM (inactive)
HOP-92
  GI50: > 100 µM (inactive)
OVCAR-3
  GI50: > 100 µM (inactive)
A498
  GI50: > 100 µM (inactive)
SF-268
  GI50: > 100 µM (inactive)
HCC 2998
  GI50: > 100 µM (inactive)
MOLT-4
  GI50: > 100 µM (inactive)
NCI-H23
  GI50: > 100 µM (inactive)
HCT-116
  GI50: > 100 µM (inactive)
KM12
  GI50: > 100 µM (inactive)
DMS-114
  GI50: > 100 µM (inactive)
IGROV-1
  GI50: > 100 µM (inactive)
U-251
  GI50: > 100 µM (inactive)

## CCOc1cc(/C=C/C=C/C=C/c2ccc(N(C)C)cc2)[s+]c2ccccc12
SN12C
  GI50: 21.2 µM (inactive)
SF-295
  GI50: 33.8 µM (inactive)
UACC-257
  GI50: 30.7 µM (inactive)
RPMI-8226
  GI50: 6.78 µM (inactive)
SF-539
  GI50: 18.2 µM (inactive)
SW-620
  GI50: 30.3 µM (inactive)
DMS-273
  GI50: 73.8 µM (inactive)
HL-60
  GI50: 1.72 µM (inactive)
TK-10
  GI50: 40.4 µM (inactive)
786-0
  GI50: 22.5 µM (inactive)
OVCAR-4
  GI50: 19.3 µM (inactive)
COLO 205
  GI50: 41.1 µM (inactive)
ACHN
  GI50: 35.6 µM (inactive)
OVCAR-8
  GI50: 27.6 µM (inactive)
A549
  GI50: 21 µM (inactive)
UACC-62
  GI50: 27.8 µM (inactive)
LXFL 529
  GI50: 16.3 µM (inactive)
RXF 393
  GI50: 10 µM (inactive)
HOP-62
  GI50: 95.5 µM (inactive)
XF498
  GI50: 23.8 µM (inactive)
SK-MEL-2
  GI50: 37.3 µM (inactive)
HT-29
  GI50: 28.7 µM (inactive)
SK-OV-3
  GI50: > 100 µM (inactive)
NCI-H522
  GI50: 4.56 µM (inactive)
UO-31
  GI50: 4.58 µM (inactive)
SK-MEL-5
  GI50: 24 µM (inactive)
OVCAR-5
  GI50: > 100 µM (inactive)
NCI-H460
  GI50: 46.9 µM (inactive)
HCT-15
  GI50: 26.4 µM
K562
  GI50: 20.9 µM (inactive)
SK-MEL-28
  GI50: 19.1 µM (inactive)
SNB-19
  GI50: 24.1 µM (inactive)
CCRF-CEM
  GI50: 4.88 µM (inactive)
M19-MEL
  GI50: 25 µM (inactive)
SNB-75
  GI50: 32 µM (inactive)
CAKI-1
  GI50: 26.5 µM (inactive)
NCI-H226
  GI50: 11.1 µM (inactive)
Malme-3M
  GI50: 22.9 µM (inactive)
EKVX
  GI50: > 100 µM (inactive)
SNB-78
  GI50: 22.5 µM (inactive)
RXF 631
  GI50: > 100 µM (inactive)
M14
  GI50: 19.7 µM (inactive)
HOP-92
  GI50: 25.1 µM (inactive)
OVCAR-3
  GI50: 14.4 µM (inactive)
A498
  GI50: > 100 µM (inactive)
SF-268
  GI50: 13.5 µM (inactive)
HCC 2998
  GI50: 48.2 µM (inactive)
MOLT-4
  GI50: 5.5 µM (inactive)
NCI-H23
  GI50: 29.9 µM (inactive)
HCT-116
  GI50: 17.7 µM (inactive)
KM12
  GI50: 10.1 µM (inactive)
DMS-114
  GI50: 5.61 µM (inactive)
IGROV-1
  GI50: 37.5 µM (inactive)
U-251
  GI50: 31.8 µM (inactive)

From ChEMBL document CHEMBL1201862, “PubChem BioAssay data set” (2004)
